Measurements reported in patent US20250333388A1, “OXADIAZOLONE COMPOUNDS AND HERBICIDAL COMPOSITIONS AND USES THEREOF” (SHANDONG BINNONG TECHNOLOGY CO., LTD., priority 2023, published 2025).

Assays:
Format in all cases: in vivo
barnyard grass = test: Test of herbicidal activity, post-seedling stem and leaf spray in greenhouse, barnyard grass; conditions: for herbicidal activity against barnyard grass compared with Control compounds A, B and C: at different doses, summary of Table 5; for Barnyard grass (%) control effect: post-seedling stem and leaf spray
Protocol: (§1) Seeds of broadleaf weeds (abutilon, Solanum nigrum) or gramineous weeds (crabgrass, barnyard grass) were sown into nutrient soil in plastic cups, respectively, and then covered with soil, compacted, watered, and further cultivated in a greenhouse by conventional methods. The stems and leaves of the weeds were sprayed when the weeds reached the 2- to 3-leaf stage. The test compounds of the present application were dissolved in acetone respectively, followed by addition of Tween 80. The solution was diluted with a certain amount of water to a certain solubility, and then sprayed onto the plants using a spray tower. The test was repeated three times. After drying naturally in the shade, the plants were put in a greenhouse and managed according to conventional methods. The growth and development of weeds were observed, and the control effect of the test agent on weeds was checked visually periodically, which was expressed by 0-100%, with “0” representing no control effect, and “100%” representing complete killing or severe inhibition.

Solanum nigrum = test: Test of herbicidal activity, post-seedling stem and leaf spray in greenhouse, Solanum nigrum; conditions: for herbicidal activity against Solamum nigrum compared with Control compounds A, B and C: at different doses, summary of Table 5; for Solanum nigrum (%) control effect: post-seedling stem and leaf spray
Protocol: as §1

crabgrass = test: Test of herbicidal activity, post-seedling stem and leaf spray in greenhouse, crabgrass; conditions: for herbicidal activity against crabgrass compared with Control compounds A, B and C: at different doses, summary of Table 5; for Crabgrass (%) control effect: post-seedling stem and leaf spray
Protocol: as §1

abutilon = test: Test of herbicidal activity, post-seedling stem and leaf spray in greenhouse, abutilon; conditions: for herbicidal activity against abutilon compared with Control compounds A, B and C: at different doses, summary of Table 5; for Abutilon (%) control effect: post-seedling stem and leaf spray
Protocol: as §1

rice = test: Safety testing on rice, stem and leaf spray in greenhouse; conditions: for inhibitory effect on rice (crop safety): at different doses, as compared to Control compounds A, B, and C, summary of Table 6; for Rice (%) safety (crop damage): stem and leaf spray
Protocol: (§2) The seeds of corn and rice were sown into nutrient soil in plastic cups, respectively, then covered with soil, compacted, watered, and further cultivated in a greenhouse by conventional methods. The stems and leaves of the crops were sprayed when the crops reached the 2- to 3-leaf stage. The test compounds of the present application were dissolved in acetone, followed by addition of Tween 80. The solution was then diluted with a certain amount of water to a certain solubility, and sprayed onto the plants using a spray tower. The test was repeated three times. After drying naturally in the shade, the plants were put in a greenhouse and managed according to conventional methods. The growth and development of corn and rice were observed, and the safety of the test agent on corn and rice was checked visually periodically. A safety grading standard was represented by 0-100%, with “O” representing no damage to crops, and “100%” representing complete killing or severe inhibition of crops.

corn = test: Safety testing on corn, stem and leaf spray in greenhouse; conditions: for inhibitory effect on corn (crop safety): at different doses, as compared to Control compounds A, B, and C, summary of Table 6; for Corn (%) safety (crop damage): stem and leaf spray
Protocol: as §2

[1] = dose 300 g a.i/ha, 0 = no control effect, 100% = complete killing or severe inhibition
[2] = dose 300 g a.i/ha, 0 = no damage to crops, 100% = complete killing or severe inhibition

SMILES	herbicidal activity against barnyard grass compared with Control compounds A, B and C (barnyard grass)	Barnyard grass (%) control effect (barnyard grass; dose 37.5 g a.i/ha)	Barnyard grass (%) control effect (barnyard grass; dose 75 g a.i/ha)	Barnyard grass (%) control effect (barnyard grass; dose 150 g a.i/ha)	Barnyard grass (%) control effect (barnyard grass; dose 300 g a.i/ha)	herbicidal activity against Solamum nigrum compared with Control compounds A, B and C (Solanum nigrum)	Solanum nigrum (%) control effect (Solanum nigrum; dose 37.5 g a.i/ha)	Solanum nigrum (%) control effect (Solanum nigrum; dose 75 g a.i/ha)	Solanum nigrum (%) control effect (Solanum nigrum; dose 150 g a.i/ha)	Solanum nigrum (%) control effect (Solanum nigrum; dose 300 g a.i/ha)	herbicidal activity against crabgrass compared with Control compounds A, B and C (crabgrass)	Crabgrass (%) control effect (crabgrass; dose 37.5 g a.i/ha)	Crabgrass (%) control effect (crabgrass; dose 75 g a.i/ha)	Crabgrass (%) control effect (crabgrass; dose 150 g a.i/ha)	Crabgrass (%) control effect (crabgrass; dose 300 g a.i/ha)	herbicidal activity against abutilon compared with Control compounds A, B and C (abutilon)	Abutilon (%) control effect (abutilon; dose 37.5 g a.i/ha)	Abutilon (%) control effect (abutilon; dose 75 g a.i/ha)	Abutilon (%) control effect (abutilon; dose 150 g a.i/ha)	Abutilon (%) control effect (abutilon; [1])	also measured
Cc1nn(Cc2c(S(C)(=O)=O)ccc(C(=O)c3c(C)nn(C)c3OC(=O)c3cnn(C)c3Cl)c2Cl)c(=O)o1 [Compound 218]	better herbicidal activities	50%	70%	85%	90%	better herbicidal activities	50%	70%	90%	95%	better herbicidal activities	45%	65%	80%	85%	better herbicidal activities	55%	80%	90%	95%	
Cc1nn(Cc2c(S(=O)(=O)C(C)C)ccc(C(=O)c3c(C)nn(C)c3O)c2Cl)c(=O)o1 [Compound 100, 1,3-dimethyl-4-{2-chloro-3-[(5-methyl-2-oxo-1,3,4-oxadiazol-3 (2H)yl)methyl]-4-isopropylsulfonylbenzoyl}-5-hydroxypyrazole]																					inhibitory effect on rice (crop safety) (rice): no significant inhibitory effect; Rice (%) safety (crop damage) (rice; dose 37.5 g a.i/ha): 0%; Rice (%) safety (crop damage) (rice; dose 75 g a.i/ha): 0%; Rice (%) safety (crop damage) (rice; dose 150 g a.i/ha): 0%; Rice (%) safety (crop damage) (rice; dose 300 g a.i/ha): 2%; inhibitory effect on corn (crop safety) (corn): no significant inhibitory effect; Corn (%) safety (crop damage) (corn; dose 37.5 g a.i/ha): 0%; Corn (%) safety (crop damage) (corn; dose 75 g a.i/ha): 0%; Corn (%) safety (crop damage) (corn; dose 150 g a.i/ha): 0%; Corn (%) safety (crop damage) (corn; [2]): 0%
Cc1nn(Cc2c(S(C)(=O)=O)ccc(C(=O)C3C(=O)CCCC3=O)c2Cl)c(=O)o1 [Compound 1]	better herbicidal activities	55%	80%	90%	98%	better herbicidal activities	60%	90%	95%	100%	better herbicidal activities	50%	75%	85%	95%	better herbicidal activities	65%	90%	98%	100%	
Cc1nn(Cc2c(S(C)(=O)=O)ccc(C(=O)c3c(C)nn(C)c3O)c2Cl)c(=O)o1 [Compound 58]																					inhibitory effect on rice (crop safety) (rice): no significant inhibitory effect; Rice (%) safety (crop damage) (rice; dose 37.5 g a.i/ha): 0%; Rice (%) safety (crop damage) (rice; dose 75 g a.i/ha): 0%; Rice (%) safety (crop damage) (rice; dose 150 g a.i/ha): 0%; Rice (%) safety (crop damage) (rice; dose 300 g a.i/ha): 5%; inhibitory effect on corn (crop safety) (corn): no significant inhibitory effect; Corn (%) safety (crop damage) (corn; dose 37.5 g a.i/ha): 0%; Corn (%) safety (crop damage) (corn; dose 75 g a.i/ha): 0%; Corn (%) safety (crop damage) (corn; dose 150 g a.i/ha): 0%; Corn (%) safety (crop damage) (corn; [2]): 0%
Cc1nn(Cc2c(S(C)(=O)=O)ccc(C(=O)c3c(C)nn(C)c3OC(=O)c3cn(C)nc3C(F)(F)F)c2Cl)c(=O)o1 [Compound 166]	better herbicidal activities	55%	80%	85%	90%	better herbicidal activities	60%	85%	90%	93%	better herbicidal activities	50%	75%	80%	85%	better herbicidal activities	65%	88%	92%	95%	
CCS(=O)(=O)c1ccc(C(=O)C2C(=O)CCCC2=O)c(Cl)c1Cn1nc(C)oc1=O [Compound 6]																					inhibitory effect on rice (crop safety) (rice): no significant inhibitory effect; Rice (%) safety (crop damage) (rice; dose 37.5 g a.i/ha): 0%; Rice (%) safety (crop damage) (rice; dose 75 g a.i/ha): 0%; Rice (%) safety (crop damage) (rice; dose 150 g a.i/ha): 5%; Rice (%) safety (crop damage) (rice; dose 300 g a.i/ha): 10%; inhibitory effect on corn (crop safety) (corn): no significant inhibitory effect; Corn (%) safety (crop damage) (corn; dose 37.5 g a.i/ha): 0%; Corn (%) safety (crop damage) (corn; dose 75 g a.i/ha): 0%; Corn (%) safety (crop damage) (corn; dose 150 g a.i/ha): 0%; Corn (%) safety (crop damage) (corn; [2]): 5%
Cc1nn(Cc2c(S(C)(=O)=O)ccc(C(=O)c3c(C)nn(C)c3OC(=O)c3c(C(F)(F)F)nn(C)c3Cl)c2Cl)c(=O)o1 [Compound 204]	better herbicidal activities	50%	70%	85%	90%	better herbicidal activities	52%	70%	90%	97%	better herbicidal activities	45%	64%	80%	88%	better herbicidal activities	55%	80%	90%	98%	
CCOC1=C(C(=O)c2ccc(S(C)(=O)=O)c(Cn3nc(C)oc3=O)c2Cl)C(=O)CCC1 [Compound 32]	better herbicidal activities	55%	80%	90%	95%	better herbicidal activities	60%	90%	95%	100%	better herbicidal activities	50%	75%	85%	90%	better herbicidal activities	65%	90%	98%	100%	
